Laboratory results published in publication PMC9254122, “Structural control of self-assembled peptide nanostructures to develop peptide vesicles for photodynamic therapy of cancer” (Materials Today Bio, 2022).

Legend:
SCC7 tumor-bearing mice = test: In vivo antitumor (photodynamic) efficacy; design: species or system mouse; details: end of therapy (14 days)
Description: The SCC7 tumor-bearing mouse models were prepared similarly to the in vivo imaging experiment, and each sample was prepared in the same way as in the in vivo IVIS imaging experiments. The samples were intravenously injected into the mice when the tumor volume reached approximately 50 mm^3. Three hours postinjection of the samples, NIR laser (671 nm) irradiation was administered to the tumor site with a power of 0.53 W/cm^2 for 15 min, and the same sample injection and NIR irradiation procedures were repeated at the next day. The tumor volume and body weight were recorded every two days. At the end of the therapy, major organs and tumors were dissected for histological analysis. They were fixed, sliced, stained with haematoxylin and eosin (H&E), and observed with a microscope (AxioImager A1, Zeiss, Germany).

[1] = Quantification of singlet oxygen with Singlet Oxygen Sensor Green (SOSG); details: RPMI 1640 medium with 10% foetal bovine serum, IR laser irradiation
Description: Fig. 4 Nonspecific aggregation of peptidesomes under physiological conditions. (a) PDT effect in SCC7 cells. (b) Quantification of singlet oxygen with Singlet Oxygen Sensor Green (SOSG). The samples were dissolved in RPMI 1640 medium containing 10% foetal bovine serum, and IR laser irradiation was performed for the indicated times. (c) AFM image of the peptidesome←Pa in RPMI 1640 medium (without the serum). R6:RGD2 = 1:9.

SCC7 cells [2] = test: In vitro cellular uptake, CLSM and flow cytometry; type: cell-based; details: 4 h treatment, flow cytometry of Pa fluorescence
Description: Cellular uptake of materials in SCC7 cells was analyzed based on the intrinsic fluorescence of Pa via CLSM (LSM700, Carl Zeiss, Germany) and flow cytometry (FACS Canto II, BD Biosciences, Bedford, MA, USA). SCC7 cells were seeded in 24-well plates at a density of 5 × 10^4 and incubated overnight. Then, 200 μL of the sample in an appropriate solution was added to 800 μL of complete medium for each well. The cells were treated with the samples for 4 h followed by the removal of the sample solution and the washing step. For cell imaging, nuclei were also stained with Hoechst 33,342.

SCC7 cells [3] = test: Photodynamic killing of cancer cells (PDT effect), MTT assay; type: cell-based; details: 24 h treatment, IR laser 671 nm at 1.59 J/cm^2, peptidesome fabricated in DW
Description: Having controlled the nano- and biostructural properties of the peptidesomes in terms of intracellular delivery efficiency and cytotoxicity, we then evaluated their tumoricidal photodynamic effects in tissue culture. Squamous cell carcinoma 7 (SCC7) cells were treated with free Pa or the peptidesome←Pa for 24 h, followed by infrared (IR) laser irradiation (671 nm) at 1.59 J/cm^2. Cytotoxicity as a measure of the photodynamic killing of cancer cells was determined using the MTT assay. […] To probe the reason behind this negative result, the amount of single oxygen (SO) generated was quantified after the incubation of both groups in cell culture medium (with serum). The amount of SO was far higher for free Pa than for peptidesome←Pa, which accounts for the results of the PDT assay (Fig. 4b). It has been shown that the aggregation of porphyrin derivatives reduced SO generation and negatively affected PDT efficacy. […] The aggregation would have been more severe in cell culture medium containing serum. Taken together, the nonspecific aggregation of the peptidesome←Pa is likely responsible for the reduced SO generation and the lack of PDT effect. The morphology of peptidesome before and after NIR irradiation was also monitored by AFM (Fig. S12). […]

[4] = stated without reference; cited from earlier work
Text: As stated in Lipinski's rule of five, most small molecule drugs are lipophilic overall. Pheophorbide a (Pa), a small molecule drug used in this study, is also hydrophobic with a low water solubility of approximately 0.014 g/L. Pa is a porphyrin derivative of plant chlorophyll and has been used as a photosensitizer for photodynamic therapy (PDT). For noncovalent drug loading in R6 peptidesome, R6 and Pa were mixed in DW, and the solution was sonicated vigorously. After this drug loading process, the R6 peptidesomes underwent a morphological transformation into elongated supe ...

cells = test: Cytotoxicity of peptidesomes; type: cell-based; details: single-component peptidesomes (Fig. 3a)

Compound | excised tumor weight, times larger than peptidesome←Pa (G&G)-treated group (SCC7 tumor-bearing mice) | weight of the excised tumor (SCC7 tumor-bearing mice; n = 4) | amount of singlet oxygen (SO) generated, free Pa versus peptidesome←Pa [1] | cell internalization efficiency relative to peptidesome←Pa (SCC7 cells [2]) | PDT effect (cytotoxicity, MTT) (SCC7 cells [3]) | water solubility [4] | Cytotoxicity of peptidesomes (cells)
C=Cc1c(C)c2cc3nc(c4c5[nH]c(cc6nc(cc1[nH]2)C(C)=C6CC)c(C)c5C(=O)[C@@H]4C(=O)OC)[C@@H](CCC(=O)O)[C@@H]3C [Pa, Pheophorbide a] | approximately 3 times | 1222 mg | far higher | 5 fold | strong dose-dependent PDT effect | approximately 0.014 g/L | –
CCCCCCCCCCCC(=O)N[C@H]1CCCCNC(=O)[C@H](Cc2c[nH]c3ccccc23)NC(=O)CCC(=O)NCCOCCOCCNC(=O)[C@H](CCCNC(=N)N)NC(=O)[C@H](CCCNC(=N)N)NC(=O)[C@H](CCCNC(=N)N)NC(=O)[C@H](CCCNC(=N)N)NC(=O)[C@H](CCCNC(=N)N)NC(=O)[C@H](CCCNC(=N)N)NC(=O)CCC(=O)NCCOCCOCCNC(=O)[C@H](Cc2c[nH]c3ccccc23)NC1=O [R6] | – | – | – | – | – | – | highly toxic
